The values below come from paper PMC9823735, “Inhibition of Leishmania infantum Trypanothione Reductase by New Aminopropanone Derivatives Interacting with the NADPH Binding Site” (Molecules, 2023).

The target in assay [1] is T1, LiTR (Leishmania infantum, UniProt A4HSF7).
T1 construct: LiTR has been expressed and purified as reported previously; made in house
Also on record: method as in PMID 30475811. The settings on record: residual LiTR activity with 100 μM inhibitor; reference compound; cited from earlier work.

Another assay has as its system hGR. Also noted: method as in PMID 30475811. The settings on record: cited from earlier work.
Assay [2] concerns L. infantum promastigotes. Also on record: method as in PMID 30475811. The settings on record: read-out: IC50 anti-proliferative effect; cited from earlier work.
Assay [3] deals with T1, LiTR. Put plainly: LiTR enzymatic inhibition assay (NADPH oxidation, absorbance at 340 nm). The settings on record: for activity at 100 µM: read-out: LiTR Activity (% at 100 µM). The assay is classed as biochemical. Here is the method: (§1) Furthermore, the best acting compound, namely 2b, reduced the activity of the enzyme by 47%.
Enzymatic inhibition assays were performed at 25 °C using a JASCO V650 spectrophotometer equipped with a JASCO EHC-716 Peltier unit. LiTR (50 nM) was mixed with 100 μM of the compounds and 150 μM trypanothione in 50 mM HEPES pH 7.4, 40 mM NaCl, and incubated at 25 °C for 3 min. The reaction was started upon addition of 100 μM NADPH. Oxidation of the NADPH was followed as a decrease in absorbance at 340 nm. The best inhibitor candidate (2b) was then tested under the same conditions at concentrations ranging from 0.1 to 200 μM to determine the IC50. LiTR activity was determined as V0(compound)/V0(control)*100, where V0 is the initial velocity. The IC50 was determined using a dose response logistic equation defined by the Kaleidagraph software as ymin + (ymax-ymin)/(1 + (x/IC50)^slope).

Assay [4] addresses T2, human homolog glutathione reductase (Homo sapiens, UniProt P00390).
T2 construct: purchased Sigma Aldrich
T2 sequence (P00390 44-522): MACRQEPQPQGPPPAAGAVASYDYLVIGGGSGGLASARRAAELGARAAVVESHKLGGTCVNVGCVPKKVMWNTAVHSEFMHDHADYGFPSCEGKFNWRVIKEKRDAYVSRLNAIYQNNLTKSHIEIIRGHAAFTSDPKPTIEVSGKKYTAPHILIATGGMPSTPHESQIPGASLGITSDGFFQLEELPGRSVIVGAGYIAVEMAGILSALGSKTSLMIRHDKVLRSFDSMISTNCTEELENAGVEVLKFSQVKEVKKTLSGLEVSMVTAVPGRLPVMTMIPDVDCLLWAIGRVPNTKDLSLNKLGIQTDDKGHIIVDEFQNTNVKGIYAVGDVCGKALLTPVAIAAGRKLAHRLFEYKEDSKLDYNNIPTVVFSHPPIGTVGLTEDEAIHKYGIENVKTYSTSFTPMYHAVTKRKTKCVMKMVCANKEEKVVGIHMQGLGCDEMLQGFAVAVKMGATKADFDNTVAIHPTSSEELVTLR
The experiment in a line: Glutathione reductase inhibition assay (NADPH oxidation, absorbance at 340 nm). The class given is biochemical. Here is the method: as §1
Figure S9: Conformation of compound 3c with the lowest energy in the most populated cluster.
Figure S10. Inhibition kinetics of the glutathione reductase in the presence of compound 2b. Inhibition assays were performed at 25 °C using a JASCO V650 spectrophotometer equipped with a JASCO EHC-716 Peltier unit. Glutathione Reductase (GR) 50 nM, (purchased from Sigma Aldrich) was mixed with varying concentrations of compound 2b (0.1 to 200 μM) and 150 μM oxidized glutathione in 50 mM HEPES pH 7.4, 40 mM NaCl; and incubated at 25°C for 3 minutes. The reaction was started upon addition of 100 μM NADPH. Oxidation of NADPH was followed as a decrease in absorbance at 340 nm. GR activity was determined as V0(compound)/V0(control)*100 where V0 is the initial velocity. The IC50 was determined using a dose response logistic equation defined by the Kaleidagraph software as ymin+(ymax-ymin)/(1+(x/IC50)^slope). […]

T1 sequence (A4HSF7 1-491): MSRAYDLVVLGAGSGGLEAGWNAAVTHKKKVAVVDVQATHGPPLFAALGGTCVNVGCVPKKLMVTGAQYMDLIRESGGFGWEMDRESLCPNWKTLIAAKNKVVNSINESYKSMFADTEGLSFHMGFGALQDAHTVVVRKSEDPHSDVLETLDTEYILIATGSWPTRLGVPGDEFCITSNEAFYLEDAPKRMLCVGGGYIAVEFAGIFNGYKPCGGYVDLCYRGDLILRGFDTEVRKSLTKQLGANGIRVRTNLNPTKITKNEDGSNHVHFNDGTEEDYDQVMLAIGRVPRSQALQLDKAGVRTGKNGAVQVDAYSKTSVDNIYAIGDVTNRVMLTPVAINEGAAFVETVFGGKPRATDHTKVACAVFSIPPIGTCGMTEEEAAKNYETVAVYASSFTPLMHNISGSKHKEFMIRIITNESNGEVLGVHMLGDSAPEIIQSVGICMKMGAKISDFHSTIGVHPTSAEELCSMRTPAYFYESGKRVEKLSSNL

A word on the IC50: it is the midpoint of a concentration-inhibition curve. For `CCN(CC)CCOC(=O)c1ccc(NCCC(=O)c2ccc([N+](=O)[O-])cc2)cc1` [Compound 1, 2-(diethylamino)ethyl 4-((3-(4-nitrophenyl)-3-oxopropyl)amino)benzoate], the “LiTR Activity (% at 100 µM)” value on LiTR [1] is <10.0 [10] %. Further, the values for the IC50 (in the assay on hGR; in assay [2]) were above 85 µM and 12.4 µM, respectively.
As to `CCN(CC)CCOC(=O)c1ccc(NCCC(=O)c2ccc(-c3ccccc3)cc2)cc1` [Compound 2a, 2-(Diethylamino)ethyl 4-((3-([1,1’-biphenyl]-4-yl)-3-oxopropyl)amino)benzoate], the activity at 100 µM on LiTR [3] was determined as 55.4 ± 13.3%.
With `CCN(CC)CCOC(=O)c1ccc(NCCC(=O)c2ccc(-c3ccc(Cl)cc3)cc2)cc1` [Compound 2b, 2-(Diethylamino)ethyl 4-((3-(4’-chloro-[1,1’-biphenyl]-4-yl)-3-oxopropyl)amino)benzoate], on LiTR [3] (100 μM compound), the “residual LiTR activity” value was determined as 47%. The IC50 against LiTR [3] (25 °C, 150 μM trypanothione, 100 μM NADPH, average of three experiments) is 65 µM; in assay [4] (25 °C, 50 nM GR, 150 μM oxidized glutathione, 100 μM NADPH) it was above 150 µM. Moreover, the activity at 100 µM on LiTR [3] is 47 ± 9.7%. In assay [4] (GR versus LiTR), the “IC50 on glutathione reductase relative to IC50 on TR (selectivity)” value was “more than two-fold higher”.
Turning to `CCN(CC)CCOC(=O)c1ccc(NCCC(=O)c2ccc(Br)cc2)cc1` [Compound 2c, 2-(Diethylamino)ethyl 4-((3-(4-bromophenyl)-3-oxopropyl)amino)benzoate], on LiTR [3], the activity at 100 µM is 73.8 ± 4.6%.
With `CCN(CC)CCOC(=O)c1ccc(NCCC(=O)c2ccccc2)cc1` [Compound 2d, 2-(Diethylamino)ethyl 4-((3-oxo-3-phenylpropyl)amino)benzoate], the activity at 100 µM on LiTR [3] was determined as 73.8 ± 4.4%.
With `CCN(CC)CCOC(=O)c1ccc(NCCC(=O)c2ccc(F)cc2)cc1` [Compound 2e, 2-(Diethylamino)ethyl 4-((3-(4-fluorophenyl)-3-oxopropyl)amino)benzoate], the activity at 100 µM on LiTR [3] is 60.5 ± 4.1%.
The same measure, in the same setting: to `CCN(CC)CCOC(=O)c1ccc(N(CCC(=O)c2ccc(F)cc2)CCC(=O)c2ccc(F)cc2)cc1` [Compound 2f, 2-(Diethylamino)ethyl 4-(bis(3-(4-fluorophenyl)-3-oxopropyl)amino)benzoate] belongs 75 ± 2.4%; to `CCN(CC)CCNC(=O)c1ccc(NCCC(=O)c2ccc(-c3ccccc3)cc2)cc1` [Compound 3a, 4-((3-([1,1’-Biphenyl]-4-yl)-3-oxopropyl)amino)-N-(2-(diethylamino)ethyl)benzamide], 68.4 ± 6.7%.
`CCN(CC)CCNC(=O)c1ccc(NCCC(=O)c2ccc(-c3ccc(Cl)cc3)cc2)cc1` [Compound 3b, 4-((3-(4’-Chloro-[1,1’-biphenyl]-4-yl)-3-oxopropyl)amino)-N-(2-(diethylamino)ethyl)benzamide]: on LiTR [3], the activity at 100 µM turned out to be 59.4 ± 2.4%.
`CCN(CC)CCNC(=O)c1ccc(NCCC(=O)c2ccc(Br)cc2)cc1` [Compound 3c, 4-((3-(4-Bromophenyl)-3-oxopropyl)amino)-N-(2-(diethylamino)ethyl)benzamide]: at LiTR [3], the activity at 100 µM was 87.3 ± 1.9%.
